Measured values from patent publication US20050085454A1, “Phenolic antioxidant-chromium complexes for treatment or prevention of type 2 diabetes or glucose intolerance” (NATREON INC., priority 2003, published 2005).

Assays:
patients with NIDDM = conditions: oral administration; cited from earlier work
[1] = tested on: patients with coronary heart disease; conditions: 60 mg twice daily oral, after 8 weeks; cited from earlier work
[2] = tested on: rats with diabetes induced by chemical destruction of β-cells; conditions: 1% taurine in the drinking water; cited from earlier work
[3] = tested on: STZ-induced diabetic rats; experiment: Repairing damaged β-cells: treatment of STZ-induced diabetic rats for further 21 days; type: in vivo
Description: In another set of experiments, STZ-induced diabetic rats, after 21 days, were administered the invention test complex compounds: S-1 (50 mg/Kg, p.o.), S-2 (100 mg/Kg, p.o.), Chromium picolinate (100 mg/Kg, p.o.), Example-1A (100 mg/Kg., p.o.), per day for further 21 days. This experiment was conducted with a view to assessing the repair aspect of the damaged β-cells by the test compounds.

[4] = Effects on animal body weight in STZ-induced hyperglycemia; type: in vivo; conditions: STZ-treated rats, 100 mg/Kg oral
[5] = tested on: Steptozocine(STZ)-induced male Wistar rats; experiment: Effect of high doses of the inventive complex, blood sugar over 21 days; type: in vivo; conditions: 100 mg/Kg oral (S-2: Cr3+ 1,000 μg/Kg; chromium picolinate: Cr3+ 700 μg/Kg), concurrently with STZ 40 mg/Kg s.c.
[6] = tested on: Steptozocine(STZ)-induced male albino rats; experiment: Screening of antidiabetic activity, blood sugar lowering action; type: in vivo; conditions: 300 μg/Kg oral, 48 hr after STZ
obese Zucker rat = conditions: dietary Vitamin E; cited from earlier work
GK rat = conditions: Vitamin E supplementation; cited from earlier work

For O=C(O)CCCC[C@@H]1CCSS1 (racemic) [lipoic acid], the insulin-mediated glucose uptake (patients with NIDDM) is listed as “significantly increased”.
In the case of COC1=C(OC)C(=O)C(C/C=C(\C)CC/C=C(\C)CC/C=C(\C)CC/C=C(\C)CC/C=C(\C)CC/C=C(\C)CC/C=C(\C)CC/C=C(\C)CC/C=C(\C)CCC=C(C)C)=C(C)C1=O [coenzyme Q10], the “plasma levels of insulin (fasting and 2-hr), glucose, and lipid peroxides, as compared to the control group” value [1] is listed as “reduced”.
For NCCS(=O)(=O)O [taurine], the renal oxidant injury [2] is given as “reduced”.
In the case of Chromium picolinate, the “% Change from day 1 (glucose)” value ([3]; 100 mg/Kg p.o. per day for 21 days, started 21 days after STZ, day 21 vs day 1) is reported as “+14 ↑ %”, the “Glucose (mg/dl) values; mean ± SE, day 1” value ([3]; 100 mg/Kg p.o. per day, started 21 days after STZ, day 1) is reported as 253.2 ± 7.7 mg/dL and the “Glucose (mg/dl) values; mean ± SE, day 7” value ([3]; 100 mg/Kg p.o. per day, started 21 days after STZ, day 7) is reported as 302.8 ± 18.0 mg/dL. The “Glucose (mg/dl) values; mean ± SE, day 14” value ([3]; 100 mg/Kg p.o. per day, started 21 days after STZ, day 14) was 294.3 ± 20.4 mg/dL, the “Glucose (mg/dl) values; mean ± SE, day 21” value ([3]; 100 mg/Kg p.o. per day, started 21 days after STZ, day 21) was 289.6 ± 9.0 mg/dL and the “effect on progressive increase in hyperglycemia (post STZ-treatment)” value ([3]; diabetic rats treated p.o. for 21 days) was “no beneficial effect”. For the same compound, the “Body Weight in gm, day 1” value ([4]; day 1) was 166 ± 8 gm, the “Body Weight in gm, day 7” value ([4]; day 7) was 180 ± 7 gm and the “Body Weight in gm, day 14” value ([4]; day 14) was 168 ± 9 gm. For the same compound, the “Body Weight in gm, day 21” value ([4]; day 21) was 172 ± 9 gm, the “Blood Sugar Values (Arterial Blood), day 7” value ([5]; day 7) was 88.7 ± 4.4 and the “Blood Sugar Values (Arterial Blood), day 14” value ([5]; day 14) was 94.3 ± 7.2. The “Blood Sugar Values (Arterial Blood), day 21” value ([5]; day 21) was 92.5 ± 3.5.
With Chromium polynicotinate [Example N-7] the “Fasting Serum Glucose (mg/dl) (mean ± SEM)” value ([6]; 3 days before and 2 days after STZ 50 mg/Kg i.v., 18 hr fasting) was 141.30 ± 9.54 mg/dL and the “% Inhibition (of fasting serum glucose vs STZ)” value ([6]; 3 days before and 2 days after STZ) was 58.25%.
For Vitamin E, the “glucose-stimulated hyper-insulinemia and lipid peroxidation” value (obese Zucker rat) is given as “significantly reduced” and the glycemic control (GK rat) is given as “significantly improved”.
